# Marks after values point to notes of the source that are not given here. Numbered stars: 1 amine (or outer) side, 2 acyl side, 3 side chain; on linkers, the order of the positions; unused ones are H or OH. Bridge positions count the residues as written; N and C are the ends. Square brackets hold non-standard residues; d marks the D form. Peptide text beside a SMILES is read from it. Tyr(3-NO2) = N[C@@H](Cc1ccc(O)c([N+](=O)[O-])c1)C(=O)O; Glutaryl = O=C(CCCC(=O)[*:2])[*:1]; Orn = NCCC[C@H](N)C(=O)O
# Legend:
# E. coli CCUG31246 = type: cell-based; settings: CCUG31246, 16 h
# Method: MICs were performed under the same growth conditions used for mode of action analysis following the guidelines issued by the Clinical Laboratory Standardization Institute (CLSI) with slight modifications. Serial two-fold dilutions of the peptides were prepared in 1:10 BHI in a sterile 96-well plate and subsequently inoculated with 5 × 10^5 CFU/mL of E. coli CCUG31246. […] The following MICs were obtained: C3: 512 μg/mL, L3: 64 μg/mL, and L3-K: 128 μg/mL. These concentrations were used for all mechanistic experiments. Polymyxin B was used as a positive control in all assays at a final concentration of 10 μg/mL.
# [1] = system: Candida albicans (ATCC 64549/CCUG31028); assay: Minimum microbicidal concentration (MMC99) assay; type: cell-based, C. albicans; settings: BHI diluted 1/100, 37 °C, median, n = 3
# Method: (§1) The microbicidal activity of the synthetic peptides was assessed against S. aureus (ATCC 12600; American Type Culture Collection, Manassas, VA, USA), Escherichia coli (CCUG 31246; Culture Collection, University of Gothenburg, Sweden), and Candida albicans (ATCC 64549/CCUG31028) using an MMC assay, as described previously by […] et al. (specific details in Supporting Information, pages 10, 11).[28] The assay was performed in BHI diluted 1/100 (BHI100). […] page 11: Table S5. Energy and structural ensembles of synthesized peptides. […] Energy -3887.06 -3620.88 -4968.42 -2163.76 -2646.75 Van der Waals solv. Energy 117.32 91.57 183.20 -88.88 -139.89 Mean RMSD* (Å), mean±SD […] Heavy atoms 1.87 ± 0.33 1.77 ± 0.50 0.98 ± 0.34 0.63 ±0.22 2.88 ±0.62 MMC99 activity including salt stability measurements Antimicrobial activity of L2 and L3 in the presence of NaCl. 1Table S6. Peptide MMC99 (μg/ml) sin NaCl S. aureus E.coli C. albicans (mM) 2[…] 0 50 25 25 85 - - - - - - >200 >200 >200 150 - - - - - - >200 >200 >200 3L 0 12.5 12.5 25 12,5 6.3 6.3 12.5 6.3 12.5 […] 150 >400 >400 (-)2 >400 >400 >400 >200 >200 >200 […] or 150 mM NaCl. L2 and L3 were serially diluted in twofold steps with a starting dilution of 200 μg/ml […] All sample dilutions were run in duplicates (L2) or triplicates (L3). 2 The growth of S. aureus at 24 h in BHI 100 with 85 or 150 mM NaCl was reduced. Minimum microbicidal concentration (MMC), killing 99% of the inoculum. All microorganisms were cultured in brain-heart infusion broth (BHI) overnight on a shaker at 37°C. The cultures were thereafter transferred to fresh BHI broth in volumes constituting 10% of total, and incubated for an additional 2 h to reach exponential growth phase. The bacterial cultures were washed once in BHI diluted 1/100 (BHI100), followed by resuspension in BHI100. The cell suspensions were diluted to a density of […] (bacteria) or 2x10^7 CFU/ml (yeast), as estimated by optical density measurement at 590 nm. […] Serum stability Figure S 133. […] A) peptide L2 B) peptide L3. C) peptide L3-K. D) peptide C3.
# C. albicans = assay: microbe, parasite or virus in culture; type: cell-based; settings: for C. albicans MIC: 16 h
# S. aureus (ATCC 12600) = assay: Minimum microbicidal concentration (MMC99) assay; type: cell-based; settings: for S. aureus MMC99 6 h / S. aureus MMC99 24 h / S. aureus MMC99 2 h: BHI diluted 1/100, 37 °C, median, n = 3; for S. aureus MMC99 2 h: lowest concentration killing 99% of inoculum, two-fold dilutions 100-1.6 μg/mL
# Method: as §1
# S. aureus = assay: microbe, parasite or virus in culture; type: cell-based; settings: for S. aureus MIC: 16 h
# [2] = system: Escherichia coli (CCUG 31246); assay: Minimum microbicidal concentration (MMC99) assay; type: cell-based, E. coli; settings: BHI diluted 1/100, 37 °C, median, n = 3
# Method: as §1
# [3] = 37 °C, RP-HPLC; for stability in human serum: human serum from male AB plasma, 250 μL serum + 100 μL aqueous peptide solution (L2 1 mM; L3 0.9 mM; L3-K 0.7 mM; C3 0.5 mM), 0, 0.5, 1, 4, 24 h, Fmoc-Gly internal standard; for additional peaks / shoulder in chromatogram after 24 h in serum, total volume percentage: human serum, detection at 254 nm
# Method: Peptide stability in serum is another limiting factor for AMPs as novel antibiotics.[30]
# Peptide serum stability was performed according to D́Aloisio et al.[30] and Chen et al.[51] with some minor modifications. The serum stability was investigated using human serum (Sigma-Aldrich) from Human male AB plasma, USA origin, sterile-filtered. 250 μL serum was temperature-equilibrated at 37 °C and 100 μL aqueous peptide solution (L2: 1 mM; L3: 0.9 mM; L3-K: 0.7 mM; and C3: 0.5 mM) was added. RP-HPLC was measured at time intervals of 0, 0.5, 1, 4, and 24 h. For RP-HPLC samples, 30 μL of peptide solution was taken, 7 μL of Fmoc-Gly solution (4 mM) was added, and 2 μL of the sample was injected to HPLC. […]
# Figure S 133. RP-HPLC chromatogram (gradient from 10 to 90% acetonitrile in water over 10 min at 2
# ml/min, detection at 254 nm) of peptides tested for serum stability. A) peptide L2 B) peptide L3. C)
# (1 picture or pasted object on this page, not shown here)
# [4] = system: human embryonic kidney (HEK) cells; type: cell-based
# Method: (§2) To confirm the peptide selectivity toward bacteria cells, cytotoxicity assays of synthesized peptides L2, L3, L3-K, and C3 against human embryonic kidney (HEK) and hepatoblastoma (HepG2) were performed (Figure 4). The cell viability was assessed using resazurin 24 h post peptide exposure. The line at 70% cell viability marks out the threshold for cytotoxic potential compared to the negative control.
# (§3) Figure 4 Cell viability assessment using the resazurin assay 24 h post peptide exposure: (a) HepG2 and (b) HEK cells were treated with various concentrations of the peptides C3, L3, L3-K, and L2. Triton-X was used as a positive control. Cells cultured in pure cell media were used as negative controls and were considered to have 100% cell viability. The line represents the threshold for cytotoxicity level of 70% of cell viability compared to the negative control. Data are presented as the mean ± SD of three biological replicates of the HepG2 cells and the mean ± SD of two biological replicates of the HEK cells.
# (§4) Cytotoxicity against human embryonic kidney (HEK) and hepatoblastoma (HepG2) cell lines was assessed. Cells were grown to an initial seeding density of 10 000 cells per well. Metabolic activity was determined in a resazurin-based assay. HEK and HepG2 cells were exposed to four different concentrations of the peptides for 24 h. Treatment with Triton X-100 at 1% v/v was used as a positive control. Following this exposure period, the cells were treated with resazurin at a final concentration of 0.015 mg/mL for 3 h. The metabolic activity was then determined in an resazurin-based assay. The fluorescence intensities were quantified in a Hidex Sense microplate reader using an excitation wavelength of 544 nm and an emission wavelength of 590 nm.
# [5] = system: hepatoblastoma (HepG2) cells; type: cell-based, human
# Method: as §2, §3, §4
smiles,measurement,setting,value
CC(C)[C@H]1NC(=O)[C@@H](C)NC(=O)CCCC(=O)NCCCC[C@@H](C(N)=O)NC(=O)[C@@H](C(C)C)NC(=O)[C@@H](CC(=O)O)NC(=O)[C@H]([C@@H](C)O)NC(=O)[C@@H](CC(=O)O)NC(=O)[C@H](Cc2c[nH]c3ccccc23)NC(=O)[C@@H](C)NC1=O [C1] ([dA][dV][dA]W[dD]T[dD][dV]K-NH2; linker N-9 via Glutaryl),E. coli MIC,E. coli CCUG31246,>512 µg/mL
same,C. albicans MMC99 2 h,[1],>100 µg/mL
same,C. albicans MMC99 6 h,[1],>100 µg/mL
same,C. albicans MMC99 24 h,[1],>100 µg/mL
same,C. albicans MIC,C. albicans,>512 µg/mL
same,S. aureus MMC99 6 h,S. aureus (ATCC 12600),>100 µg/mL
same,S. aureus MMC99 24 h,S. aureus (ATCC 12600),>100 µg/mL
same,S. aureus MMC99 2 h,S. aureus (ATCC 12600),>100 µg/mL
same,S. aureus MIC,S. aureus,>512 µg/mL
same,E. coli MMC99 2 h,[2],>100 µg/mL
same,E. coli MMC99 6 h,[2],>100 µg/mL
same,E. coli MMC99 24 h,[2],>100 µg/mL
CC(C)[C@H]1NC(=O)[C@H](CCCN)NC(=O)[C@H]([C@@H](C)O)NC(=O)[C@H](CCCN)NC(=O)[C@H](Cc2c[nH]c3ccccc23)NC(=O)[C@@H](C)NC(=O)[C@@H](C(C)C)NC(=O)[C@@H](C)NC(=O)CCCC(=O)NCCCC[C@@H](C(N)=O)NC1=O [C2] ([dA][dV][dA]W[Orn]T[Orn][dV]K-NH2; linker N-9 via Glutaryl),E. coli MIC,E. coli CCUG31246,>512 µg/mL
same,C. albicans MMC99 2 h,[1],>100 µg/mL
same,C. albicans MMC99 6 h,[1],>100 µg/mL
same,C. albicans MMC99 24 h,[1],>100 µg/mL
same,C. albicans MIC,C. albicans,>512 µg/mL
same,S. aureus MMC99 6 h,S. aureus (ATCC 12600),>100 µg/mL
same,S. aureus MMC99 24 h,S. aureus (ATCC 12600),>100 µg/mL
same,S. aureus MMC99 2 h,S. aureus (ATCC 12600),>100 µg/mL
same,S. aureus MIC,S. aureus,>512 µg/mL
same,E. coli MMC99 2 h,[2],>100 µg/mL
same,E. coli MMC99 6 h,[2],>100 µg/mL
same,E. coli MMC99 24 h,[2],>100 µg/mL
CC(C)[C@@H](NC(=O)[C@@H](C)N)C(=O)N[C@H](C)C(=O)N[C@@H](Cc1c[nH]c2ccccc12)C(=O)N[C@H](CC(=O)O)C(=O)N[C@H](C(=O)N[C@H](CC(=O)O)C(=O)N[C@@H](C(=O)N[C@@H](CCCCN)C(N)=O)C(C)C)[C@@H](C)O [L1] (H-[dA][dV][dA]W[dD]T[dD][dV]K-NH2),E. coli MIC,E. coli CCUG31246,>512 µg/mL
same,C. albicans MIC,C. albicans,>512 µg/mL
same,S. aureus MIC,S. aureus,>512 µg/mL
CC(C)[C@@H](NC(=O)[C@H](CCCN)NC(=O)[C@@H](NC(=O)[C@H](CCCN)NC(=O)[C@H](Cc1c[nH]c2ccccc12)NC(=O)[C@@H](C)NC(=O)[C@H](NC(=O)[C@@H](C)N)C(C)C)[C@@H](C)O)C(N)=O [L2-K] (H-[dA][dV][dA]W[Orn]T[Orn][dV]-NH2),E. coli MIC,E. coli CCUG31246,>512 µg/mL
same,C. albicans MIC,C. albicans,>512 µg/mL
same,S. aureus MIC,S. aureus,>512 µg/mL
CC(C)[C@@H](NC(=O)[C@H](CCCN)NC(=O)[C@@H](NC(=O)[C@H](CCCN)NC(=O)[C@H](Cc1c[nH]c2ccccc12)NC(=O)[C@@H](C)NC(=O)[C@H](NC(=O)[C@@H](C)NC(=O)[C@@H](N)Cc1c[nH]c2ccccc12)C(C)C)[C@@H](C)O)C(=O)N[C@@H](Cc1ccc(O)c([N+](=O)[O-])c1)C(N)=O [L3-K] (H-W[dA][dV][dA]W[Orn]T[Orn][dV][Tyr(3-NO2)]-NH2),stability in human serum,[3],stable after 24 h
same,"additional peaks / shoulder in chromatogram after 24 h in serum, total volume percentage",[3],1.3%
same,"cytotoxicity, cell viability HEK",[4],no cytotoxicity at any tested concentration
same,C. albicans MIC,C. albicans,248 µg/mL
same,S. aureus MIC,S. aureus,418.7 µg/mL
same,"cytotoxicity, cell viability HepG2",[5],no cytotoxicity at any tested concentration
CC(C)[C@@H](NC(=O)[C@H](CCCN)NC(=O)[C@@H](NC(=O)[C@H](CCCN)NC(=O)[C@H](Cc1c[nH]c2ccccc12)NC(=O)[C@@H](C)NC(=O)[C@H](NC(=O)[C@@H](C)NC(=O)[C@@H](N)Cc1c[nH]c2ccccc12)C(C)C)[C@@H](C)O)C(=O)N[C@@H](Cc1ccc(O)c([N+](=O)[O-])c1)C(=O)N[C@@H](CCCCN)C(N)=O [L3] (H-W[dA][dV][dA]W[Orn]T[Orn][dV][Tyr(3-NO2)]K-NH2),stability in human serum,[3],stable after 24 h
same,"additional peaks / shoulder in chromatogram after 24 h in serum, total volume percentage",[3],0.6%
same,"cytotoxicity, cell viability HEK",[4],no cytotoxicity at any tested concentration
same,E. coli MIC,E. coli CCUG31246,64 µg/mL
same,S. aureus MIC,S. aureus,248 µg/mL
same,"cytotoxicity, cell viability HepG2",[5],no cytotoxicity at any tested concentration
"Clc1ccccc1C(c1ccccc1)(c1ccccc1)n1ccnc1 [clotrimazole, reference compound]",C. albicans MMC99 2 h,[1],>100 ^d μg/mL
same,C. albicans MMC99 6 h,[1],>100 ^d μg/mL
same,C. albicans MMC99 24 h,[1],>100 ^d μg/mL
same,MIC,"C. albicans; Candida albicans, highest concentration 512 μg/mL, median, n = 3",4 µg/mL
"CC(=O)O[C@H]1C[C@@]2(C)[C@@H](C[C@@H](O)[C@H]3[C@@]4(C)CC[C@@H](O)[C@@H](C)[C@@H]4CC[C@@]32C)/C1=C(\CCC=C(C)C)C(=O)O [fusidic acid, reference compound]","MMC99 for S. aureus, decreasing over time",S. aureus (ATCC 12600); 2 h to 24 h,25 to 1.6 μg/mL
same,S. aureus MMC99 6 h,S. aureus (ATCC 12600),6.3 µg/mL
same,S. aureus MMC99 24 h,S. aureus (ATCC 12600),1.6 µg/mL
same,S. aureus MMC99 2 h,S. aureus (ATCC 12600),25 µg/mL
same,MIC,"S. aureus; Staphylococcus aureus, read-out: S. aureus MIC",0.09 µg/mL
